Experimental data as given in the supplement of paper PMC7285287.
Where a name gives a salt, the structure may show the parent alone. ± gives the standard deviation of the averaged measurements.

System: Candida albicans SNY425 biofilm
Test: biofilm OD600 relative to DMSO control (fraction of DMSO control); higher = more biofilm (less inhibition)
Procedure: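 C. albicans SNY425 biofilm optical density assays (OD600 of the adhered biofilm after media removal) in RPMI-MOPS pH 7.0 at 37 °C with shaking. Groups of 4 to 8 wells per compound are averaged and normalised to the average of DMSO loading control wells. Adherence inhibition was tested at 10 and 40 µM, sustained inhibition and disruption at 40 µM, and the MBIC series at 200 to 0.78 µM.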

[1] = 0.78 µM, assay detail: sustained inhibition (MBIC series), 384-well, compound during adherence and 24 h growth
[2] = 3.125 µM, assay detail: sustained inhibition (MBIC series), 384-well, compound during adherence and 24 h growth
[3] = 10 µM, assay detail: adherence inhibition, 96-well, compound during 90 min adherence only
[4] = 12.5 µM, assay detail: sustained inhibition (MBIC series), 384-well, compound during adherence and 24 h growth
[5] = 40 µM, assay detail: adherence inhibition, 96-well, compound during 90 min adherence only
[6] = 40 µM, assay detail: disruption, 384-well, compound added to 24 h mature biofilm for further 24 h
[7] = 40 µM, assay detail: sustained inhibition, 384-well, compound during adherence and 24 h growth
[8] = 50 µM, assay detail: sustained inhibition (MBIC series), 384-well, compound during adherence and 24 h growth
[9] = 200 µM, assay detail: sustained inhibition (MBIC series), 384-well, compound during adherence and 24 h growth

Structure (SMILES): COCCOC(=O)C1=C(C)NC(C)=C(C(=O)OC(C)C)C1c1cccc([N+](=O)[O-])c1 (stereo unspecified) [nimodipine]
- biofilm OD600 [1]: 1.07
- biofilm OD600 [2]: 1.06
- biofilm OD600 [3]: 0.942
- biofilm OD600 [4]: 1.01
- biofilm OD600 [5]: 0.821
- biofilm OD600 [6]: 0.91 ± 0.029
- biofilm OD600 [7]: 0.984 ± 0.043
- biofilm OD600 [8]: 0.987
- biofilm OD600 [9]: 1.27

Structure (SMILES): COC(=O)C1=C(C)NC(C)=C(C(=O)OCC(C)C)C1c1ccccc1[N+](=O)[O-] (stereo unspecified) [nisoldipine]
- biofilm OD600 [1]: 0.962
- biofilm OD600 [2]: 1.01
- biofilm OD600 [3]: 0.914
- biofilm OD600 [4]: 0.989
- biofilm OD600 [5]: 0.888
- biofilm OD600 [6]: 1.01 ± 0.051
- biofilm OD600 [7]: 0.65 ± 0.077
- biofilm OD600 [8]: 0.549
- biofilm OD600 [9]: 0.397

Structure (SMILES): O=C1CN(/N=C/c2ccc([N+](=O)[O-])o2)C(=O)N1 [nitrofurantoin]
- biofilm OD600 [3]: 1.08
- biofilm OD600 [5]: 1.04
- biofilm OD600 [6]: 0.999 ± 0.035
- biofilm OD600 [7]: 0.999 ± 0.011

Structure (SMILES): Cc1cc2c(s1)Nc1ccccc1N=C2N1CCN(C)CC1 [olanzapine]
- biofilm OD600 [3]: 0.943
- biofilm OD600 [5]: 0.921
- biofilm OD600 [6]: 0.999 ± 0.027
- biofilm OD600 [7]: 0.974 ± 0.04

Structure (SMILES): Fc1ccc([C@@H]2CCNC[C@H]2COc2ccc3c(c2)OCO3)cc1 [paroxetine hydrochloride]
- biofilm OD600 [1]: 1.02
- biofilm OD600 [2]: 1.05
- biofilm OD600 [3]: 0.932
- biofilm OD600 [4]: 0.95
- biofilm OD600 [5]: 0.926
- biofilm OD600 [6]: 0.9497 ± 0.0011
- biofilm OD600 [7]: 0.509 ± 0.05
- biofilm OD600 [8]: 0.62
- biofilm OD600 [9]: 0.565

Structure (SMILES): NC(=O)NC(=O)Cc1ccccc1 [phenacemide]
- biofilm OD600 [3]: 1.05
- biofilm OD600 [5]: 0.929
- biofilm OD600 [6]: 1.015 ± 0.0049
- biofilm OD600 [7]: 1.02 ± 0.065

Structure (SMILES): C=CC1=C(C)c2cc3[nH]c(cc4nc(cc5[nH]c(cc1n2)c(C)c5CCC(=O)O)C(CCC(=O)O)=C4C)c(C)c3C=C [protoporphyrin ix]
- biofilm OD600 [3]: 1.04
- biofilm OD600 [5]: 0.941
- biofilm OD600 [6]: 1.21 ± 0.082
- biofilm OD600 [7]: 1.65 ± 0.22

Structure (SMILES): CCOC(=O)[C@H](CCc1ccccc1)N[C@@H](C)C(=O)N1Cc2ccccc2C[C@H]1C(=O)O [quinapril hydrochloride]
- biofilm OD600 [3]: 1.07
- biofilm OD600 [5]: 0.946
- biofilm OD600 [6]: 1 ± 0.022
- biofilm OD600 [7]: 1.01 ± 0.033

Structure (SMILES): COCCCOc1ccnc(C[S+]([O-])c2nc3ccccc3[nH]2)c1C (stereo unspecified) [rabeprazole sodium]
- biofilm OD600 [1]: 0.998
- biofilm OD600 [2]: 1.1
- biofilm OD600 [3]: 1.06
- biofilm OD600 [4]: 1.08
- biofilm OD600 [5]: 0.914
- biofilm OD600 [6]: 0.936 ± 0.049
- biofilm OD600 [7]: 1 ± 0.022
- biofilm OD600 [8]: 1.01
- biofilm OD600 [9]: 0.747

Structure (SMILES): CC(C)N1CCN(c2ccc(OCC3COC(Cn4cncn4)(c4ccc(Cl)cc4Cl)O3)cc2)CC1 (stereo unspecified) [terconazole]
- biofilm OD600 [1]: 0.77
- biofilm OD600 [2]: 0.76
- biofilm OD600 [3]: 0.387
- biofilm OD600 [4]: 0.728
- biofilm OD600 [5]: 0.269
- biofilm OD600 [6]: 0.9787 ± 0.008
- biofilm OD600 [7]: 0.55 ± 0.032
- biofilm OD600 [8]: 0.568
- biofilm OD600 [9]: 0.403

Structure (SMILES): Clc1ccc(C(Cn2ccnc2)OCc2ccsc2Cl)c(Cl)c1 (stereo unspecified) [tioconazole]
- biofilm OD600 [1]: 0.768
- biofilm OD600 [2]: 0.714
- biofilm OD600 [3]: 0.341
- biofilm OD600 [4]: 0.675
- biofilm OD600 [5]: 0.284
- biofilm OD600 [6]: 0.8317 ± 0.0059
- biofilm OD600 [7]: 0.473 ± 0.032
- biofilm OD600 [8]: 0.491
- biofilm OD600 [9]: 0.312

Structure (SMILES): C[C@]12C=CC(=O)C=C1CC[C@H]1[C@@H]3C[C@@H](O)[C@](O)(C(=O)CO)[C@@]3(C)C[C@H](O)[C@@]12F [triamcinolone]
- biofilm OD600 [3]: 1
- biofilm OD600 [5]: 0.879
- biofilm OD600 [6]: 1.03 ± 0.034
- biofilm OD600 [7]: 1 ± 0.014

Structure (SMILES): CC(C)[C@H](N)C(=O)OCCOCn1cnc2c(=O)nc(N)[nH]c21 [valacyclovir hydrochloride]
- biofilm OD600 [3]: 1.1
- biofilm OD600 [5]: 0.844
- biofilm OD600 [6]: 1 ± 0.024
- biofilm OD600 [7]: 0.982 ± 0.047

Structure (SMILES): Cc1ccc(-c2nc3ccc(C)cn3c2CC(=O)N(C)C)cc1 [zolpidem]
- biofilm OD600 [3]: 0.924
- biofilm OD600 [5]: 0.858
- biofilm OD600 [6]: 1.005 ± 0.0066
- biofilm OD600 [7]: 0.981 ± 0.055
